Assay results reported in patent US20170190671A1, “BIS(ARYL)CATECHOL DERIVATIVES AS HERBICIDES” (E I DU PONT DE NEMOURS AND COMPANY, priority 2014, published 2017).

Legend:
Format in all cases: in vivo
[1] = tested on: waterhemp (common waterhemp, Amaranthus rudis); assay: Test C preemergence; details: Amaranthus tuberculatus, pre-emergence, scale 0 to 100, read-out: Plant response rating, Waterhemp
From the text: (§1) Seeds of plant species selected from blackgrass (Alopecurus myosuroides), Italian ryegrass (Lolium multiflorum), winter wheat (Triticum aestivum), galium (catchweed bedstraw, Galium aparine), corn (Zea mays), large (Lg) crabgrass (Digitaria sanguinalis), giant foxtail (Setaria faberii), johnsongrass (Sorghum halepense), lambsquarters (Chenopodium album), morningglory (Ipomoea coccinea), yellow nutsedge (Cyperus esculentus), pigweed (Amaranthus retroflexus), ragweed (common ragweed, Ambrosia elatior), soybean (Glycine max), barnyardgrass (Echinochloa crus-galli), oilseed rape (Brassica napus), waterhemp (common waterhemp, Amaranthus rudis), and velvetleaf (Abutilon theophrasti) were planted into a blend of loam soil and sand and treated preemergence with test chemicals formulated in a non-phytotoxic solvent mixture which included a surfactant.
(§2) At the same time, plants selected from these crop and weed species and also chickweed (common chickweed, Stellaria media), kochia (Kochia scoparia), and wild oat (Avena fatua), were planted in pots containing Redi-Earth® planting medium (Scotts Company, 14111 Scottslawn Road, Marysville, Ohio 43041) comprising spaghnum peat moss, vermiculite, wetting agent and starter nutrients and treated with postemergence applications of test chemicals formulated in the same manner. Plants ranged in height from 2 to 18 cm (1- to 4-leaf stage) for postemergence treatments. Treated plants and controls were maintained in a greenhouse for 13 to 15 days, after which time all species were compared to controls and visually evaluated. Plant response ratings, summarized in Table C, are based on a scale of 0 to 100 where 0 is no effect and 100 is complete control. A dash (-) response means no test result.

[2] = tested on: Italian ryegrass (Lolium multiflorum); assay: Test C preemergence; details: Lolium multiflorum, pre-emergence, 336 h, scale 0 to 100, read-out: Plant response rating, Ryegrass, Italian
From the text: as §1, §2

[3] = tested on: barnyardgrass (Echinochloa crus-galli); assay: Test B flooded paddy; details: Echinochloa crus-galli, 336 h; 250 g ai/ha, Flood, 13 to 15 days, scale 0 (no effect) to 100 (complete control); read-out: Plant response rating, Barnyardgrass
Summary of the method: (§3)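 Flooded 3 cm over soil; compound into paddy water; depth kept constant. Greenhouse 13–15 d.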

[4] = tested on: sedge, umbrella (small-flower umbrella sedge, Cyperus difformis); assay: Test B flooded paddy; details: Cyperus difformis, 336 h; 250 g ai/ha, Flood, 13 to 15 days, scale 0 (no effect) to 100 (complete control); read-out: Plant response rating, Sedge, Umbrella
Summary of the method: as §3

rice (Oryza sativa) = assay: Test B flooded paddy; details: Oryza sativa, 336 h; 250 g ai/ha, Flood, 13 to 15 days, scale 0 (no effect) to 100 (complete control); read-out: Plant response rating, Rice
Summary of the method: as §3

[5] = tested on: ducksalad (Heteranthera limosa); assay: Test B flooded paddy; details: Heteranthera limosa, 336 h; 250 g ai/ha, Flood, 13 to 15 days, scale 0 (no effect) to 100 (complete control); read-out: Plant response rating, Ducksalad
Summary of the method: as §3

[6] = tested on: ragweed (common ragweed, Ambrosia elatior); assay: Test A preemergence; details: Ambrosia artemisiifolia, pre-emergence, 240 h
Summary of the method: (§4)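 Visual injury scored 0–100 (100 = complete control) against untreated controls about 10 days after treatment in a greenhouse. Test chemicals, formulated with surfactant in non-phytotoxic solvent, were sprayed on soil preemergence or on 2-10 cm, one- to two-leaf plants postemergence.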

[7] = tested on: barnyardgrass (Echinochloa crus-galli); assay: Test A preemergence; details: Echinochloa crus-galli, pre-emergence, 240 h
Summary of the method: as §4

kochia (Kochia scoparia) [8] = assay: Test A preemergence; details: Bassia scoparia, pre-emergence, 240 h
Summary of the method: as §4

[9] = tested on: pigweed (Amaranthus retroflexus); assay: Test A preemergence; details: Amaranthus retroflexus, pre-emergence, 240 h
Summary of the method: as §4

[10] = tested on: Italian ryegrass (Lolium multiflorum); assay: Test A preemergence; details: Lolium multiflorum, pre-emergence, 240 h
Summary of the method: as §4

[11] = tested on: giant foxtail (Setaria faberii); assay: Test A preemergence; details: Setaria faberi, pre-emergence, 240 h
Summary of the method: as §4

[12] = tested on: ragweed (common ragweed, Ambrosia elatior); assay: Test A postemergence; details: Ambrosia artemisiifolia, post-emergence, 240 h, 0 to 100 scale, read-out: Plant response rating, Ragweed
Summary of the method: as §4

corn (Zea mays) = assay: Test A postemergence; details: Zea mays, post-emergence, 240 h, 0 to 100 scale
Summary of the method: as §4

[13] = tested on: barnyardgrass (Echinochloa crus-galli); assay: Test A postemergence; details: Echinochloa crus-galli, post-emergence, 240 h, 0 to 100 scale, read-out: Plant response rating, Barnyardgrass
Summary of the method: as §4

[14] = tested on: wheat (Triticum aestivum); assay: Test A postemergence; details: Triticum aestivum, post-emergence, 240 h, 0 to 100 scale, read-out: Plant response rating, Wheat
Summary of the method: as §4

[15] = tested on: galium (catchweed bedstraw, Galium aparine); assay: Test A postemergence; details: Galium, post-emergence, 240 h, 0 to 100 scale, read-out: Plant response rating, Galium
Summary of the method: as §4

kochia (Kochia scoparia) [16] = assay: Test A postemergence; details: Bassia scoparia, post-emergence, 240 h, 0 to 100 scale, read-out: Plant response rating, Kochia
Summary of the method: as §4

[17] = tested on: pigweed (Amaranthus retroflexus); assay: Test A postemergence; details: Amaranthus retroflexus, post-emergence, 240 h, 0 to 100 scale, read-out: Plant response rating, Pigweed
Summary of the method: as §4

[18] = tested on: blackgrass (Alopecurus myosuroides); assay: Test A postemergence; details: Alopecurus myosuroides, post-emergence, 240 h, 0 to 100 scale, read-out: Plant response rating, Blackgrass
Summary of the method: as §4

[19] = tested on: Italian ryegrass (Lolium multiflorum); assay: Test A postemergence; details: Lolium multiflorum, post-emergence, 240 h, 0 to 100 scale, read-out: Plant response rating, Ryegrass, Italian
Summary of the method: as §4

[20] = tested on: giant foxtail (Setaria faberii); assay: Test A postemergence; details: Setaria faberi, post-emergence, 240 h, 0 to 100 scale, read-out: Plant response rating, Foxtail, Giant
Summary of the method: as §4

N#Cc1cccc(Oc2ncc(Br)cn2)c1Oc1ncc(Cl)cn1 [Compound 5, 3-[(5-bromo-2-pyrimidinyl)oxy]-2-[(5-chloro-2-pyrimidinyl)oxy]benzonitrile]
pest or weed control at 31 g/ha ([1]; 31 g ai/ha, preemergence): 100%
pest or weed control at 62 g/ha ([1]; 62 g ai/ha, preemergence): 100%
pest or weed control at 125 g/ha ([1]; 125 g ai/ha, preemergence): 100%
pest or weed control at 16 g/ha ([1]; Preemergence, 16 g ai/ha): 85%
pest or weed control at 31 g/ha ([2]; 31 g ai/ha, preemergence): 5%
pest or weed control at 62 g/ha ([2]; 62 g ai/ha, preemergence): 55%
pest or weed control at 125 g/ha ([2]; 125 g ai/ha, preemergence): 60%
pest or weed control at 16 g/ha ([2]; Preemergence, 16 g ai/ha): 0%
pest or weed control at 250 g/ha [3]: 35%
pest or weed control at 250 g/ha [4]: 75%
plant injury at 250 g/ha (rice (Oryza sativa)): 0%
pest or weed control at 250 g/ha [5]: 100%
pest or weed control at 31 g/ha ([6]; 31 g ai/ha, 0 to 100 scale (0 no effect, 100 complete control), read-out: Ragweed plant response rating): 0%
pest or weed control at 125 g/ha ([6]; 125 g ai/ha, 0 to 100 scale, read-out: Plant response rating, Ragweed): 20%
pest or weed control at 31 g/ha ([7]; 31 g ai/ha, 0 to 100 scale (0 no effect, 100 complete control), read-out: Barnyardgrass plant response rating): 20%
pest or weed control at 125 g/ha ([7]; 125 g ai/ha, 0 to 100 scale, read-out: Plant response rating, Barnyardgrass): 80%
pest or weed control at 31 g/ha (kochia (Kochia scoparia) [8]; 31 g ai/ha, 0 to 100 scale (0 no effect, 100 complete control), read-out: Kochia plant response rating): 100%
pest or weed control at 125 g/ha (kochia (Kochia scoparia) [8]; 125 g ai/ha, 0 to 100 scale, read-out: Plant response rating, Kochia): 100%
pest or weed control at 31 g/ha ([9]; 31 g ai/ha, 0 to 100 scale (0 no effect, 100 complete control), read-out: Pigweed plant response rating): 100%
pest or weed control at 125 g/ha ([9]; 125 g ai/ha, 0 to 100 scale, read-out: Plant response rating, Pigweed): 100%
pest or weed control at 31 g/ha ([10]; 31 g ai/ha, 0 to 100 scale (0 no effect, 100 complete control), read-out: Ryegrass, Italian plant response rating): 0%
pest or weed control at 125 g/ha ([10]; 125 g ai/ha, 0 to 100 scale, read-out: Plant response rating, Ryegrass, Italian): 60%
pest or weed control at 31 g/ha ([11]; 31 g ai/ha, 0 to 100 scale (0 no effect, 100 complete control), read-out: Foxtail, Giant plant response rating): 90%
pest or weed control at 125 g/ha ([11]; 125 g ai/ha, 0 to 100 scale, read-out: Plant response rating, Foxtail, Giant): 100%
pest or weed control at 31 g/ha ([12]; 31 g ai/ha): 20%
pest or weed control at 125 g/ha ([12]; 125 g ai/ha): 40%
Corn plant response rating (crop injury, 0 = no effect, 100 = complete kill) at 31 g/ha (corn (Zea mays); 31 g ai/ha): 20%
Corn plant response rating (crop injury, 0 = no effect, 100 = complete kill) at 125 g/ha (corn (Zea mays); 125 g ai/ha): 80%
pest or weed control at 31 g/ha ([13]; 31 g ai/ha): 20%
pest or weed control at 125 g/ha ([13]; 125 g ai/ha): 90%
plant injury at 31 g/ha ([14]; 31 g ai/ha): 20%
plant injury at 125 g/ha ([14]; 125 g ai/ha): 40%
pest or weed control at 31 g/ha ([15]; 31 g ai/ha): 50%
pest or weed control at 125 g/ha ([15]; 125 g ai/ha): 90%
pest or weed control at 31 g/ha (kochia (Kochia scoparia) [16]; 31 g ai/ha): 70%
pest or weed control at 125 g/ha (kochia (Kochia scoparia) [16]; 125 g ai/ha): 100%
pest or weed control at 31 g/ha ([17]; 31 g ai/ha): 70%
pest or weed control at 125 g/ha ([17]; 125 g ai/ha): 100%
pest or weed control at 31 g/ha ([18]; 31 g ai/ha): 40%
pest or weed control at 125 g/ha ([18]; 125 g ai/ha): 90%
pest or weed control at 31 g/ha ([19]; 31 g ai/ha): 20%
pest or weed control at 125 g/ha ([19]; 125 g ai/ha): 50%
pest or weed control at 31 g/ha ([20]; 31 g ai/ha): 10%
pest or weed control at 125 g/ha ([20]; 125 g ai/ha): 90%
